In PMC11375437, “Selective labelling of GBA2 in cells with fluorescent β-D-arabinofuranosyl cyclitol aziridines” (Chemical Science, 2024):

Target: T1, GBA2 (Homo sapiens, UniProt Q9HCG7)
T1 sequence (Q9HCG7 1-927): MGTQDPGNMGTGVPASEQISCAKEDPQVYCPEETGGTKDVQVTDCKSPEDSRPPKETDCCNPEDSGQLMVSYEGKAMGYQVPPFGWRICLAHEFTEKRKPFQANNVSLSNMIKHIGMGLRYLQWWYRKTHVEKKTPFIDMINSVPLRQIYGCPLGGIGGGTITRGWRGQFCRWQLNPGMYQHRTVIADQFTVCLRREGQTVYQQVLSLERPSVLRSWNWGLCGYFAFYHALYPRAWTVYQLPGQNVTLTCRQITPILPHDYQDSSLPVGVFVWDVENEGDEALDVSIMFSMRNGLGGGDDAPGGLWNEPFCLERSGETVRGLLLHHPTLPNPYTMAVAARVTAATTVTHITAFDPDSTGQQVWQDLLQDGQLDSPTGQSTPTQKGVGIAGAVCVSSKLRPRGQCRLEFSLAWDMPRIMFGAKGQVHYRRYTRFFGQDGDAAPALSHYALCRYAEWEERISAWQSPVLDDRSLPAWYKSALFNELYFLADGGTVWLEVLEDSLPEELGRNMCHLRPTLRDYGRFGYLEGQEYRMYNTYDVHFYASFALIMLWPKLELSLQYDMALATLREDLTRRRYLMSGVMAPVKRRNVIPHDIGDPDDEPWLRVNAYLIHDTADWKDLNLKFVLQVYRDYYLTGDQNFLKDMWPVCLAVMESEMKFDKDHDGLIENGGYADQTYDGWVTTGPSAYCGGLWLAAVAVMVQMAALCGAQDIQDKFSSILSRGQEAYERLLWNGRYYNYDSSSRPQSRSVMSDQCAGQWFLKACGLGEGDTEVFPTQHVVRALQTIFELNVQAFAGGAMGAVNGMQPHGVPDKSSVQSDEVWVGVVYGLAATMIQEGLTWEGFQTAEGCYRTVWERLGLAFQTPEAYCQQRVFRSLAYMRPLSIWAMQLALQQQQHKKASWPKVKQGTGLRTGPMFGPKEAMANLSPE
Assay: In vitro ABP labelling of HEK293T lysates (ABPP, SDS-PAGE fluorescence scanning)
Type: biochemical
Design: expressed in transfected cells; host or cells: HEK293T GBA1/GBA2 KO (CRISPR/Cas9), GBA2 overexpressed
Details: for Concentration at which GBA2 is selectively labelled: 30 min, pH 6.0
Protocol: To this end, lysates of HEK293T cells containing all β-glucosidases (endogenous GBA1 with overexpressed GBA2 and GBA3) were treated with ABPs 3, 4, 5 or 7, followed by protein separation by SDS-PAGE and fluorescence scanning of the wet gel slabs. […] In contrast, the β-D-Araf aziridine ABPs 3 and 4 selectively labelled GBA2 at a concentration of 100 nM, while Cy5 tagged ABP 5 did so at 500 nM. The GBA2 selectivity of β-D-Araf cyclitol aziridines 3, 4 and 5 was confirmed in a mixture of a lysate of overexpressed GBA2 cells spiked with 3 ng rhGBA1 (Fig. 2C and ESI Fig. S3 ^†). In this experiment, the enzyme mixture was first incubated with β-D-Araf aziridine ABPs 3, 4, or 5 for 30 minutes, after which selective GBA1 ABP 10 [32] or 11 [30] was added to label the remaining active rhGBA1 active site. […] The pH and incubation time dependence labelling of GBA2 in HEK293T cells containing all three retaining β-glucosidases by β-D-Araf ABPs was next investigated (Fig. 2D, E and ESI Fig. S4 ^†). All ABPs selectively label GBA2 at a pH range of 4.5–7.5. Using 500 nM of ABP 4, GBA2 labelling occurred within a minute, and maximal labelling was observed after 20–30 minutes. […] Therefore, only a combined inactivation rate constant (kinact) and binding constant (KI) ratio (kinact/KI) could be measured. […] Importantly, no labelling of GBA1 or GBA3 was detected under varying pH and time conditions (ESI Fig. S4-2 ^†). […]
2.6 Visualization of ABP labelling towards β-glucosidases by activity-based protein profiling (ABPP) with SDS-PAGE
β-Glucosidases were labeled with excess of fluorescent ABPs at optimum conditions at 37 °C for 30 min (if not otherwise stated). The total sample volume was 20–40 μL with 0.5–1% DMSO concentration in appropriate pH McIlvaine buffer (150 mM). To label lysates containing all β-glucosidases (GBA1, GBA2 and GBA3), ABP 7 was used at pH 6.0 in McIlvaine buffer. To label lysate only containing GBA2 (GBA1/2 KO and GBA2 OE cell lysate), ABP (3-5, or 7) was incubated at pH 5.8 in McIlvaine buffer was used. To label rhGBA1 (Imiglucerase), ABP (10 or 11) at pH 5.2 in McIlvaine buffer supplemented with 0.1% (v/v) Triton X-100 and 0.2% (w/v) sodium taurocholate were used.
After incubation with the corresponding ABPs, proteins were denatured by boiling the samples with 5× Laemmli buffer (50% (v/v) 1 M Tris-HCl, pH 6.8, 50% (v/v) 100% glycerol, 10% (w/v) DTT, 10% (w/v) SDS, 0.01% (w/v) bromophenol blue, diluted into 1x for use) for 5 min at 98 °C, and separated by electrophoresis on 10% SDS-PAGE gels run at 90 V for 1.0-1.5 h. Wet slab-gels were imaged using the Typhoon FLA 9500 scanner (GE Healthcare, Eindhoven, The Netherlands) at λEX 473 nm and λEM ≥ 510 nm for BODIPY green fluorescence; at λEX 532 nm and λEM ≥ 575 nm for the BODIPY red fluorescence ; at λEX 635 nm and λEM ≥ 665 nm for Cy5 fluorescence. Afterwards, wet slab-gels were stained by Coomassie brilliant blue (CBB) G250 or R250 for total protein staining and scanned with a ChemiDocTM MP Imaging System (Bio-Rad, Veenendaal, The Netherlands).
2.7 Determination of kinetic parameters of ABP 4
The kinetic parameters of ABP 4 for GBA2 was determined by SDS-PAGE analysis in lysates of HEK293T GBA1/2 knock out GBA2 overexpression cells in which the relative intensity of the band on wet gel slabs (compared to labelling control) was used to calculate the inactivation parameters of GBA2. Lysates were made as previous cell lysis description. […]

[1] = HEK293T lysate, endogenous GBA1, overexpressed GBA2 and GBA3

CC1=CC(C)=[N+]2C1=C(CCCCc1cn(CCCCCCCCN3[C@@H]4[C@H](CO)[C@@H](O)[C@H](O)[C@@H]43)nn1)c1c(C)cc(C)n1[B-]2(F)F (some centres unmarked) [ABP 3] was tested, and the “Concentration at which GBA2 is selectively labelled” value [1] was 100 nM.
CN1/C(=C/C=C/C=C/C2=[N+](CCCCCC(=O)NCc3cn(CCCCCCCCN4[C@@H]5[C@H](CO)[C@@H](O)[C@H](O)[C@@H](O)[C@@H]54)nn3)c3ccccc3C2(C)C)C(C)(C)c2ccccc21 (some centres unmarked) [ABP 7] was tested, and the “β-Glucosidases labelled in lysate” value [1] was “labelled all three β-glucosidases”.
With COc1ccc(C2=[N+]3C(=C(CCCCc4cn(CCCCCCCCN5[C@@H]6[C@H](CO)[C@@H](O)[C@H](O)[C@@H]65)nn4)c4ccc(-c5ccc(OC)cc5)n4[B-]3(F)F)C=C2)cc1 (some centres unmarked) [ABP 4] the “Time to maximal GBA2 labelling” value (500 nM ABP, HEK293T lysate containing all three β-glucosidases) was 20 to 30 min and the “Concentration at which GBA2 is selectively labelled” value [1] was 100 nM.
CN1/C(=C/C=C/C=C/C2=[N+](CCCCCC(=O)NCc3cn(CCCCCCCCN4[C@@H]5[C@H](CO)[C@@H](O)[C@H](O)[C@@H]54)nn3)c3ccccc3C2(C)C)C(C)(C)c2ccccc21 (some centres unmarked) [ABP 5] was tested, and the “Concentration at which GBA2 is selectively labelled” value [1] was 500 nM.
